Measurements published in patent US12402622B2, “Agricultural compositions and methods of use thereof” (Valent U.S.A. LLC, priority 2019, dated 2025).

How the values were obtained:
volunteer corn = experiment: Control and lodging of volunteer corn (14 inches), spray chamber, sugar alcohol rate series, Example 4; assay type: in vivo; details: for lodging on addition of the sugar alcohol to S-3100: addition to S-3100, rate not given; for control of volunteer corn relative to S-3100 alone: sugar alcohol at 1700, 3400, 6800, 13600 and 27200 g/HA with S-3100
Description: (§1) 12 trials were conducted on the efficacy of S-3100 with or without mannitol or sorbitol at various application rates. Specifically, 12 plots of volunteer corn were grown to 14 inches in height. These plots were placed in a spray chamber for treatment. All compositions contained 1% v/v of Agridex® and 0.25% v/v of Induce®. Treatments and results can be found in Table 4, below.

crabgrass = experiment: Control of crabgrass (10 inches), spray chamber, sugar alcohol rate series, Example 3; assay type: in vivo, Digitaria sanguinalis; details: for control of crabgrass relative to S-3100 alone: 7 and 14 DAT, sugar alcohol at 1700, 3400, 6800, 13600 and 27200 g/HA with S-3100; for % control: S-3100 20 g/HA alone
Description: as §1, with “crabgrass” for “volunteer corn”, “10” for “14”, “3,” for “4,”

[1] = tested on: soybean petioles/leaves at V6 stage; experiment: Soybean petiole detached assay (translocation of S-3100), Example 6; assay type: in vivo; details: 21 DAT, S-3100 20 g/HA, mannitol or sorbitol 6800 g/HA, FIG. 1
Description: FIG. 1. Soybean plant leaf at V6 stage. A. untreated control. B. Treated with 20 g/HA S-3100. C. Treated with 6800 g/HA mannitol. D. Treated with 6800 g/HA sorbitol. E. Treated with 20 g/HA S-3100 and 6800 g/HA mannitol. F. Treated with 20 g/HA S-3100 and 6800 g/HA sorbitol.
4 plots of soybeans were grown to the V6 stage. Soybean petioles of plants at the V6 stage were treated in a petiole detached assay with 1 of the following 4 treatments: 1) untreated; 2) 20 g/HA S-3100; 3) 20 g/HA S-3100 and 6800 g/HA mannitol or 4) 20 g/HA S-3100 and 6800 g/HA sorbitol. Results were recorded 21 DAT. Results can be seen in FIG. 1.

barnyard grass [2] = experiment: Control of barnyard grass (10 inches), spray chamber, sugar alcohol rate series, Example 5; assay type: in vivo, Echinochloa crus-galli; details: for control of barnyard grass relative to S-3100 alone: 7 and 14 DAT, sugar alcohol at 1700, 3400, 6800, 13600 and 27200 g/HA with S-3100; for % control: S-3100 20 g/HA alone
Description: as §1, with “barnyard grass” for “volunteer corn”, “10” for “14”, “5,” for “4,”

barnyard grass [3] = experiment: Control of barnyard grass (6 inches), spray chamber, Example 1; assay type: in vivo, Echinochloa crus-galli; details: S-3100 20 g/HA, mannitol or sorbitol 6800 g/HA where combined
Description: 4 trials were conducted on the efficacy of ethyl [3-[2-chloro-4-fluoro-5-(1-methyl-6-trifluoromethyl-2,4-dioxo-1,2,3,4-tetrahydropyrimidin-3-yl)phenoxy]-2-pyridyloxy]acetate (“S-3100”) with or without mannitol or sorbitol. Specifically, 4 plots of barnyard grass were grown to 6 inches in height. These plots were placed in a spray chamber for treatment. All compositions contained 1% v/v of Agridex® and 0.25% v/v of Induce®. Treatments and results can be found in Table 1, below.

corn = experiment: Control of corn (12 inches), spray chamber, Example 2; assay type: in vivo; details: S-3100 20 g/HA, mannitol or sorbitol 6800 g/HA where combined
Description: as §1, with “4” for “12”, “sorbitol.” for “sorbitol at various application rates.”, “of” for “of volunteer”, “12” for “14”, “2,” for “4,”

| Structure (SMILES) | lodging on addition of the sugar alcohol to S-3100 (volunteer corn) | control of volunteer corn relative to S-3100 alone (volunteer corn) | control of crabgrass relative to S-3100 alone (crabgrass) | leaf symptoms (necrosis, yellowing, bronzing) as sign of translocation [1] | control of barnyard grass relative to S-3100 alone (barnyard grass [2]) | % control (volunteer corn; 7 DAT, S-3100 20 g/HA alone) [%] | % lodging (volunteer corn; 8 DAT, S-3100 20 g/HA alone) [%] | % control (crabgrass; 7 DAT) [%] | % control (crabgrass; 14 DAT) [%] | % control (barnyard grass [3]; 2 days after treatment, 1% v/v Agridex, 0.25% v/v Induce) [%] | % control (barnyard grass [3]; 7 days after treatment) [%] | % control (barnyard grass [3]; 13 days after treatment) [%] | % control (barnyard grass [3]; 20 days after treatment) [%] | % control (corn; 9 days after treatment, 1% v/v Agridex, 0.25% v/v Induce) [%] | % control (corn; 13 days after treatment) [%] | % control (corn; 22 days after treatment) [%] | % control (barnyard grass [2]; 7 DAT) [%] | % control (barnyard grass [2]; 14 DAT) [%] |
| --- | --- | --- | --- | --- | --- | --- | --- | --- | --- | --- | --- | --- | --- | --- | --- | --- | --- | --- |
| OC[C@@H](O)[C@@H](O)[C@H](O)[C@H](O)CO [mannitol] | did not increase lodging | increase control of volunteer corn over S-3100 alone | increase control of crabgrass over S-3100 alone | necrotic areas on the leaf tissue | increase control of barnyard grass over S-3100 alone | – | – | – | – | – | – | – | – | – | – | – | – | – |
| CCOC(=O)COc1ncccc1Oc1cc(-n2c(=O)cc(C(F)(F)F)n(C)c2=O)c(F)cc1Cl [S-3100, ethyl [3-[2-chloro-4-fluoro-5-(1-methyl-6-trifluoromethyl-2,4-dioxo-1,2,3,4-tetrahydropyrimidin-3-yl)phenoxy]-2-pyridyloxy]acetate] | – | – | – | leaf yellowing and vein necrosis especially on the main vascular tissue | – | 80.6 | 75 | 81.3 | 76.9 | 27.2 | 72.1 | 49.3 | 40 | 55.8 | 52.5 | 25 | 94.1 | 89.1 |
| OC[C@@H](O)[C@@H](O)[C@H](O)[C@@H](O)CO [sorbitol] | 100% | increase control of volunteer corn over S-3100 alone | increase control of crabgrass over S-3100 alone | – | increase control of barnyard grass over S-3100 alone | – | – | – | – | – | – | – | – | – | – | – | – | – |
